The record followed here is PubChem BioAssay AID1508612.

What is called Papp is the rate of passage across a membrane or cell layer, normalised by area and donor concentration. A low value points to poor permeation.

The nature of the data set: passive permeability, PAMPA, ADME assay (AID 1508612). The note with it: pH 7.4, 30.0 min, 50.0 µM. On the technique in general: The PAMPA barrier holds no transporters, so it reflects passive diffusion.

A value given as a limit tells only on which side of the number the result lay.

As to `COc1ccc(-c2ccc3ncc4c(c3c2)n(-c2ccc(N3CCNCC3)c(C(F)(F)F)c2)c(=O)n4C)cn1`, the Papp is less than 1 ×10⁻⁶ cm/s.
To `O=C(Nc1cn[nH]c1-c1nc2ccc(CN3CCOCC3)cc2[nH]1)NC1CC1` belongs 5.07 ×10⁻⁶ cm/s; to `CCOC(=O)c1nc(Nc2ccc(N3CCC(C)CC3)cc2)c2ccccc2n1`, more than 1000 ×10⁻⁶ cm/s; to `O=C(NCCCn1ccnc1)c1ccc(-c2ncc3cnc(-c4cccc(F)c4)cn23)cc1`, less than 1 ×10⁻⁶ cm/s.
To `Cc1ccc(-c2cc(C(=O)Nc3ccccn3)c3ccccc3n2)cc1` belongs more than 1000 ×10⁻⁶ cm/s.
To `C[C@H]1CN(C(=O)c2nn(C)c3ccccc23)C[C@@H]1c1nc(-c2cccnc2)no1` belongs 982 ×10⁻⁶ cm/s; to `Cc1cc(NS(=O)(=O)c2ccc(NC(=O)Cc3ccc(F)c(Cl)c3)cc2)no1`, 10.4 ×10⁻⁶ cm/s.
`N=c1c2c(ccn1CCc1ccccc1)Oc1ccc3ccccc3c1C2c1ccccc1` (configuration not stated): the Papp came out at 553 ×10⁻⁶ cm/s.
Take `O=C(Nc1ccc2oc(-c3cccnc3)nc2c1)c1ccc(-c2ccccc2)o1`: the Papp came to 771 ×10⁻⁶ cm/s.
To `NC(=O)C1CCN(c2nc(-c3ccccc3F)cs2)CC1` belongs 558 ×10⁻⁶ cm/s; to `CC(C)(C)n1cnc2cc(C(=O)N3CCCCC3)ccc21`, 106 ×10⁻⁶ cm/s; to `CC(=O)C1CCN(c2ncc(-c3cccc(N(C)C)c3)s2)CC1`, more than 1000 ×10⁻⁶ cm/s.
For `COCCOc1cnc2ccn([C@H](C)c3nnc4c(F)cc(-c5cnn(C)c5)cn34)c(=O)c2c1` the value was 15.1 ×10⁻⁶ cm/s.
In turn, `O=C(Cc1c[nH]c2ncc(-c3ccc(Cl)cc3)cc12)NCc1cccnc1` returned a Papp of more than 1000 ×10⁻⁶ cm/s.
The compound `CCC(CC)c1cc([C@H]2CN3CC[C@H]2C[C@@H]3CNC(=O)COc2ccccc2)nc(-c2ccncc2)n1` yielded a Papp of 790 ×10⁻⁶ cm/s.
For `N#Cc1cnc(NS(=O)(=O)c2ccc(NC(=O)Cc3ccc(F)c(Cl)c3)cc2)s1` the value was less than 1 ×10⁻⁶ cm/s; for `O=C(NCCCn1ccnc1)c1nc(-c2ccccc2)cc2[nH]ccc12`, 597 ×10⁻⁶ cm/s.
To `CC1CCN(S(=O)(=O)c2ccc3c(c2)C(C)(C)C(=O)N3CC(=O)NCc2ccco2)CC1` belongs 584 ×10⁻⁶ cm/s; to `CC(C)(C)C(=O)N1CCN(c2nccc(Nc3ccccc3Cl)n2)CC1`, more than 1000 ×10⁻⁶ cm/s; to `Cc1nc(Sc2nnnn2C)c2c(-c3ccccc3)csc2n1`, 826 ×10⁻⁶ cm/s.
For `COCc1cc(C)nc(SCC(=O)c2ccc(O)c(O)c2)c1C#N` the value was 118 ×10⁻⁶ cm/s; for `CCOc1ccc(NC(=O)c2nc(S(=O)(=O)Cc3ccccc3F)ncc2Cl)cc1`, 882 ×10⁻⁶ cm/s.
In turn, `CCCC1=Nc2cc(C(=O)NC3CCCCC3)ccc2Sc2ccc(C)cc21` yielded an apparent permeability coefficient (Papp) of 17.1 ×10⁻⁶ cm/s.
On to `CCOC(=O)N1CCc2c(sc(NCc3ccc(N(C)C)cc3)c2C(=O)Nc2ccc(OC)cc2)C1`, for which the Papp worked out at 58.5 ×10⁻⁶ cm/s.
Turning to `Nc1c(S(=O)(=O)c2cccs2)c2nc3ccccc3nc2n1Cc1ccccc1`, the Papp is more than 1000 ×10⁻⁶ cm/s.
To `NC(=O)C1CCN(c2nccc(-c3ccc(Br)cc3)n2)CC1` belongs 360 ×10⁻⁶ cm/s.
As for `CCNC(=O)c1ccc(-c2ccc3ncnc(NCC4CCCO4)c3c2)o1` (configuration not stated), the Papp amounted to 146 ×10⁻⁶ cm/s.
Compound `COc1ccc(-c2nc3ccccc3c(=O)n2Cc2ccccc2)cc1COc1ccc(NC(C)=O)cc1` gave a Papp of more than 1000 ×10⁻⁶ cm/s.
For `O=[S+]([O-])(Nc1ccc(C2CCNCC2)cc1)c1ccc(NCc2ccc(Br)cc2O)cc1` the value was 6.3 ×10⁻⁶ cm/s.
For `C[C@@H](O)CNC(C)(C)CC(=O)N[C@@H]1CCc2ccccc2N(Cc2ccc(-c3ccccc3-c3nn[nH]n3)cc2)C1=O` the value was less than 1 ×10⁻⁶ cm/s; for `O=C1CCCC2=C1C(c1[nH]ncc1Cl)N=C(Nc1nc3c(Br)cccc3o1)N2` (configuration not stated), 531 ×10⁻⁶ cm/s; for `N=c1c2c(ncn1-c1ccccc1)Oc1ccc3ccccc3c1C2c1ccc2c(c1)CCO2` (configuration not stated), 282 ×10⁻⁶ cm/s.
`Nc1nc2c(s1)C(c1ccccc1OCc1ccccc1Cl)CC(=O)N2` (configuration not stated) yielded a Papp of 509 ×10⁻⁶ cm/s.
To `CCOC(=O)Nc1ccc(NCc2ccc(F)cc2)nc1N` belongs 68.3 ×10⁻⁶ cm/s.
To `Cc1cn(CCN2CCN(c3ccccc3-c3cc(C#N)cc(C(=O)NCCCN4CCCC4)c3)CC2)c2ccccc12` belongs less than 1 ×10⁻⁶ cm/s.
For `NC(=O)C1CCN(c2nc(-c3cccc4ccccc34)cs2)CC1` the value was 641 ×10⁻⁶ cm/s.
In turn, `CCCCOc1ccc(C(=O)N2CCC(c3n[nH]c(=O)n3-c3ccc(C)cc3)CC2)cc1` registered a Papp of 892 ×10⁻⁶ cm/s.
Take `CC(=O)N[C@H]1CN(C2CCN(c3ccc(F)cc3C)CC2)C[C@@H]1C1CC1`: the Papp is more than 1000 ×10⁻⁶ cm/s.
The compound `COc1c(C)c2c(c(O)c1C/C=C(\C)CCC(=O)OCCN1CCOCC1)C(=O)OC2` registered a Papp of 613 ×10⁻⁶ cm/s.
For `NC(=O)C1CCN(c2nc(-c3ccc([N+](=O)[O-])cc3)cs2)CC1` the value was 604 ×10⁻⁶ cm/s; for `COC(=O)c1cccc(NC(=O)c2cnc(-c3ccc(F)cc3)nc2-c2ccncc2)c1`, more than 1000 ×10⁻⁶ cm/s.
For `Cc1cc(/C=C2/C(=O)Nc3ccccc32)cc(C)c1O` the value was 976 ×10⁻⁶ cm/s.
For `O=C1CCCC2=C1C1(CCS(=O)(=O)C1)N=C(Nc1nc3ccccc3o1)N2` (configuration not stated) the value was 176 ×10⁻⁶ cm/s.
`Cc1ccc(S(=O)(=O)Nc2cnccc2C(=O)Nc2nc(-c3ccccc3)cs2)cc1` registered a Papp of 724 ×10⁻⁶ cm/s.
On to `CN(C)c1cccc(-c2ccnc(N3CCC(C(N)=O)CC3)n2)c1`, for which the Papp amounted to 333 ×10⁻⁶ cm/s.
For `O=C(Nc1cccc(F)c1)c1cc(-c2ccc[nH]2)n[nH]1` the value was 136 ×10⁻⁶ cm/s.
To `NC(=O)C1CCN(c2nc(-c3cccc([N+](=O)[O-])c3)cs2)CC1` belongs 568 ×10⁻⁶ cm/s; to `OCCNc1ncnc2c1ncn2[C@@H]1O[C@@H](CO)[C@H](O)[C@@H]1O`, less than 1 ×10⁻⁶ cm/s.
To `CCCn1cnc2cc(NCc3ccc(OC)cc3OC)ccc21` belongs more than 1000 ×10⁻⁶ cm/s.
On to `CC(C)n1cc(-c2ccc(Oc3ccccc3)cc2)c2c(N)ncnc21`, for which the Papp was more than 1000 ×10⁻⁶ cm/s.
To `O=C1Nc2ccccc2/C1=C/c1cccc(C(=O)O)c1` belongs 1.2 ×10⁻⁶ cm/s; to `O=C1Nc2ccccc2/C1=C/c1ccc[nH]1`, 606 ×10⁻⁶ cm/s; to `C[C@]1(CO)CN(c2cc(C(=O)Nc3ccc4c(c3)-c3c(c(C(N)=O)nn3-c3ccc(F)cc3)CC4)c(Cl)cn2)C[C@@]1(C)CO`, 18.5 ×10⁻⁶ cm/s.
For `CCc1oc2ccccc2c1C(=O)c1cc(I)c(O)c(I)c1` the value was 67.7 ×10⁻⁶ cm/s.
`Cc1cccc(C)c1C(=O)Nc1cccc([S+](=O)([O-])N(C)C)c1` displayed a Papp of 355 ×10⁻⁶ cm/s.
To `CCOC(=O)C1CCN(C(=O)C(C)(C)NC(=O)Nc2ccc(-c3ccccc3)cc2)CC1` belongs 486 ×10⁻⁶ cm/s; to `COc1ccc(-c2csc(NC(=O)c3ccccc3NS(=O)(=O)c3ccc(C)cc3)n2)cc1`, 7.7 ×10⁻⁶ cm/s.
For `CNc1nc(-c2ccc3c(N)n[nH]c3c2)cc(N2C[C@@H](C(=O)NC3CCCCC3)CC[C@@H]2C)n1` the value was 14.4 ×10⁻⁶ cm/s.
For `CN1CCCC1CCOC(c1cc2nccc(C(=O)O)c2[nH]1)c1ccccc1Cl` (configuration not stated) the value was 1.1 ×10⁻⁶ cm/s; for `CC1=C(C(=O)Nc2nncs2)C(c2[nH]ncc2Cl)N=C(Nc2nc3ccccc3o2)N1` (configuration not stated), 37 ×10⁻⁶ cm/s; for `Fc1cc(Nc2nc(-c3ccncc3)nc3ccccc23)ccc1OCC(F)(F)F`, 58.8 ×10⁻⁶ cm/s.
`COc1ccc(NC(=O)c2ccc[nH]2)cc1S(=O)(=O)Nc1ccc(Br)cc1` returned a Papp of more than 1000 ×10⁻⁶ cm/s.
To `O=C(NCc1ccccc1)C1CCN(c2nc(-c3ccc(Br)cc3)cs2)CC1` belongs 23.2 ×10⁻⁶ cm/s; to `CCCN1C(CC(C)C)=NS(=O)(=O)c2cc(NC(=O)c3cccs3)ccc21`, 762 ×10⁻⁶ cm/s; to `COc1ccc2[nH]c(C[C@@H]3C[C@@H](C(C)C)[C@H](CNCc4ccccc4O)C=C3C)nc2n1`, more than 1000 ×10⁻⁶ cm/s.
For `Oc1ccc(CNc2cccc(F)c2)c2cccnc12` the value was less than 1 ×10⁻⁶ cm/s; for `Cc1cc(C)nc(NC(=S)N2CCN(c3ccc4nsnc4c3)CC2)c1`, 707 ×10⁻⁶ cm/s; for `Cc1ccc(-c2cc(C(=O)Nc3ccc(C#N)cc3)c3ccccc3n2)cc1C`, 285 ×10⁻⁶ cm/s.
To `O=C(NC[C@H]1Cn2c(-c3ccc(Cl)cc3)cnc2CO1)C1CCCC1` belongs 108 ×10⁻⁶ cm/s; to `Cc1ccccc1C(=O)N1CCc2cc(N3CCC(NC(=O)Cc4ccccc4)C3)ccc21` (configuration not stated), 783 ×10⁻⁶ cm/s.
Turning to `CCc1ccc(NC(=O)c2[nH]c(C)c(C(C)=O)c2C)cc1S(=O)(=O)Nc1cccc(C#N)c1`, the apparent permeability coefficient (Papp) turned out to be 178 ×10⁻⁶ cm/s.
To `Cc1cc(-c2nnc3n2CCCCC3)c(C)n1-c1cccc(C(F)(F)F)c1` belongs more than 1000 ×10⁻⁶ cm/s; to `COc1cccc(-c2nc(-c3cc4cc(OC)ccc4[nH]c3=O)no2)c1`, more than 1000 ×10⁻⁶ cm/s; to `O=C(c1ccc2c(c1)ncn2-c1cccc(Cl)c1)N1CCCCC1`, 895 ×10⁻⁶ cm/s.
For `COc1cc2c(c(OC)c1OC)-c1ccc(SC)c(=O)cc1C(N)CC2` (configuration not stated) the value was more than 1000 ×10⁻⁶ cm/s.
To `COc1cc(Nc2nc(-c3ccncc3)nc3ccccc23)ccc1N1CCN(C)CC1` belongs more than 1000 ×10⁻⁶ cm/s.
As for `CC(=O)Nc1ccc(CN2CCc3nc(C(C)C)nc(-c4ccc(Cl)cc4)c3CC2)cc1`, the Papp was more than 1000 ×10⁻⁶ cm/s.
To `Cc1sc2c(c1C)C(c1ccc(Cl)cc1)=N[C@@H](CC(=O)OC(C)(C)C)c1nnc(C)n1-2` belongs more than 1000 ×10⁻⁶ cm/s.
For `Cc1ccc(S(=O)(=O)Nc2cnccc2C(=O)Nc2ccc(S(=O)(=O)Nc3nccs3)cc2)cc1` the value was less than 1 ×10⁻⁶ cm/s.
Consider `Nc1ccc(S(=O)(=O)Nc2cnccc2C(=O)Nc2nc(-c3ccccc3)cs2)cc1`, for which the Papp stood at 101 ×10⁻⁶ cm/s.
To `CNc1ncc(-c2cccc3ccccc23)o1` belongs more than 1000 ×10⁻⁶ cm/s; to `Cc1cnc(-c2ccccc2C2COC2)nc1NCc1ccc(-n2ccnn2)cc1`, less than 1 ×10⁻⁶ cm/s.
`C=CCc1ccc(O)c(-c2ccc(O)c(CC=C)c2)c1` came in with a Papp of more than 1000 ×10⁻⁶ cm/s.
For `c1c[nH]c(C2CCN(c3ncc(-c4ccc5c(c4)OCCCO5)s3)CC2)n1` the value was more than 1000 ×10⁻⁶ cm/s.
To `Cc1nc2sccn2c(=O)c1S(=O)(=O)Nc1ccc(N2CCN(S(C)(=O)=O)CC2)cc1` belongs 209 ×10⁻⁶ cm/s; to `COc1cc(C(=O)NC2CCCc3c2[nH]c2c(Cl)cccc32)cc(OC)c1OC` (configuration not stated), 593 ×10⁻⁶ cm/s; to `Cc1c(-c2nsc(NC(=O)c3cccc(Cl)c3)n2)nnn1-c1ccccc1C(F)(F)F`, 706 ×10⁻⁶ cm/s.
`CCN1CCN(CCCOc2ccc(-c3ccccc3)cc2)CC1` yielded an apparent permeability coefficient (Papp) of more than 1000 ×10⁻⁶ cm/s.
To `COc1ccc(NC(=O)c2[nH]c(C)c(C(C)=O)c2C)cc1S(=O)(=O)N(C)C` belongs 329 ×10⁻⁶ cm/s; to `CNc1nc(C#N)c(-c2cccc3ccccc23)o1`, more than 1000 ×10⁻⁶ cm/s; to `COc1cccc(CNc2ccc(C(=O)Nc3nccs3)cc2)c1O`, more than 1000 ×10⁻⁶ cm/s.
For `CN1CC=C(c2nc(Nc3ccc(F)c(F)c3)c3ccccc3n2)CC1` the value was more than 1000 ×10⁻⁶ cm/s.
